Data published in patent publication US7214682B2, “Substituted 2-pyridinyl-6,7,8,9-tetrahydropyrimido{1,2-a}pyrimidin-4-one and 7-pyridinyl-2,3-dihydroimidazo{1,2-a}pyrimidin-5(1h)one derivatives” (Sanofi-aventis, priority 2001, dated 2007).

Legend:
GSK3β = GSK3β (Homo sapiens, UniProt P49841); test: Inhibitory activity against GSK3β (TPK1), 33P-ATP phosphorylation of GS1 peptide; format: biochemical; conditions: TPK1 = GSK3β (b5); table 4
Description: Two different protocols can be used.
In a first protocol: 7.5 μM of prephosphorylated GS1 peptide and 10 μM ATP (containing 300,000 cpm of 33P-ATP) were incubated in 25 mM Tris-HCl, pH 7.5, 0.6 mM DTT, 6 mM MgCl2, 0.6 mM EGTA, 0.05 mg/ml BSA buffer for 1 hour at room temperature in the presence of GSK3β (total reaction volume: 100 microliters).
In a second protocol: 4.1 μM of prephosphorylated GS1 peptide and 42 μM ATP (containing 260,000 cpm 33P-ATP) were incubated in 80 mM Mes-NaOH, pH 6.5, 1 mM Mg acetate, 0.5 mM EGTA, 5 mM 2-mercaptoethanol, 0.02% Tween 20, 10% glycerol buffer for 2 hours at room temperature in the presence of GSK3β.
Inhibitors were solubilized in DMSO (final solvent concentration in the reaction medium, 1%).
The reaction was stopped with 100 microliters of a solution made of 25 g polyphosphoric acid (85% P2O5), 126 ml 85% H3PO4, H2O to 500 ml and then diluted to 1:100 before use. An aliquot of the reaction mixture was then transferred to Whatman P81 cation exchange filters and rinsed with the solution described above. Incorporated 33P radioactivity was determined by liquid scintillation spectrometry.
The phosphorylated GS-1 peptide had the following sequence: NH2-[…](P)EDEE-COOH.
The GSK3β inhibitory activity of the compounds of the present invention are expressed in IC50, and as an illustration the range of IC50's of the compounds in table 1 is between 4 nanomolar to 2 micromolar concentrations, of the compounds in table 2 is between 30 nanomolar to 2 micromolar concentrations and of the compounds in table three is between 1 nanomolar to 2 micromolar.

cdk5/p25 = cdk5/p25 (Homo sapiens, UniProt Q00535); test: Inhibitory activity against cdk5/p25 (TPK2), 33P-ATP phosphorylation of Histone H1; format: biochemical; conditions: TPK2 = cdk5/p25 (b7); table 4
Description: The following protocol may be used: 0.4 mg/ml Histone H1 and 10 μM ATP (containing 300,000 cpm of ^33P-ATP) were incubated in 50 mM Hepes, pH 7.2, 1 mM DTT, 1 mM MgCl2, 1 mM EGTA, 0.02% Tween 20 buffer for 1 hour at room temperature in the presence of cdk5/p25 (total reaction volume: 100 microliters). Inhibitors were solubilized in DMSO (final solvent concentration in the reaction medium, 1%). The reaction was stopped with 100 microliters of a solution of 25 g polyphosphoric acid (85% P2O5), 126 ml 85% H3PO4, H2O to 500 ml (diluted to 1:100 before use). An aliquot of the reaction mixture was then transferred to Whatman P81 cation exchange filters and rinsed with the solution described above. Incorporated ^33P radioactivity was determined by liquid scintillation spectrometry. The cdk5/p25 inhibitory activity of the compounds of the present invention are expressed as IC50 values. Typically, 3-fold serial dilutions of the inhibitor over at least a 1000-fold concentration range are used.

GSK3β, sequence (P49841 whole entry, species assumed): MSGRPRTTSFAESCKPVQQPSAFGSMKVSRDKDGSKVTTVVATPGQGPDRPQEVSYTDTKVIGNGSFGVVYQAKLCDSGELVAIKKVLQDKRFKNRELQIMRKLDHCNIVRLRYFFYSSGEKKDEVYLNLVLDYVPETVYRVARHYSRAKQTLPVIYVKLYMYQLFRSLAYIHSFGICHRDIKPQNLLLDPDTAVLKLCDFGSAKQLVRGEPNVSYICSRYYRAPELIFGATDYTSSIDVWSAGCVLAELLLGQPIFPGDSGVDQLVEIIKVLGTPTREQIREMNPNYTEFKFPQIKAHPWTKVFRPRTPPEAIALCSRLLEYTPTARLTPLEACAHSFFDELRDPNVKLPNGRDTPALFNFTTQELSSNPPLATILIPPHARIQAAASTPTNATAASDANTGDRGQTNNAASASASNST
cdk5/p25, sequence (Q00535 whole entry, species assumed): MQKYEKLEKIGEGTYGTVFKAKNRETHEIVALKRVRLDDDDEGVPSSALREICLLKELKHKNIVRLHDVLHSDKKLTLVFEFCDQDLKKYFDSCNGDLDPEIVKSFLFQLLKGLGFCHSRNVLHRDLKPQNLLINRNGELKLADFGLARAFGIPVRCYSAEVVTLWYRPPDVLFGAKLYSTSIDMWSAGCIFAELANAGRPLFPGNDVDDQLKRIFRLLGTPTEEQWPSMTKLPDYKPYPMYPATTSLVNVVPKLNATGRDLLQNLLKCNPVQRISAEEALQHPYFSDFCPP
cdk5/p25, sequence (Q15078 99-307 partner limits assumed, species assumed): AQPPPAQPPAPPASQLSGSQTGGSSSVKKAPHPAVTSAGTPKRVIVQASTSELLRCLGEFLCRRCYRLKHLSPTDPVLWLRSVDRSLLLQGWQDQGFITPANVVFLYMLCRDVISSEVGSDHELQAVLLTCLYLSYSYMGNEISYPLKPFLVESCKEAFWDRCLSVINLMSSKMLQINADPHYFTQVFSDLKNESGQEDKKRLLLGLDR

Row | SMILES | IC50 (GSK3β) [µM] | IC50 (cdk5/p25) [µM] | melting point [°C]
1 | O=C(CN1CCCn2c1nc(-c1ccncc1)c(Cl)c2=O)c1ccccc1 [Table 1 Compound 39, 9-(2-Oxo-2-phenyl-ethyl)-3-chloro-2-(pyridin-4-yl)-6,7,8,9-tetrahydro-4H-pyrimido[1,2-a]pyrimidin-4-one] | 0.004 | 0.062 | 
2 | O=C(CN1CCCn2c1nc(-c1ccncc1)c(F)c2=O)c1cccc(F)c1 [Table 1 Compound 37, 9-[2-Oxo-2-(3-fluorophenyl)-ethyl]-3-fluoro-2-(pyridin-4-yl)-6,7,8,9-tetrahydro-4H-pyrimido[1,2-a]pyrimidin-4-one] | 0.004 | 4.6 | 
3 | O=C(CN1CCCn2c1nc(-c1ccncc1)c(Br)c2=O)c1ccccc1 [Table 1 Compound 40, 9-(2-Oxo-2-phenyl-ethyl)-3-bromo-2-(pyridin-4-yl)-6,7,8,9-tetrahydro-4H-pyrimido[1,2-a]pyrimidin-4-one] | 0.005 | 0.077 | 
4 | O=c1cc(-c2ccncc2)nc2n1CC(F)(F)CN2C[C@@H](O)c1ccccc1 [Table 1 Compound 5, 9-(2(S)-Hydroxy-2-phenyl-ethyl)-7,7-difluoro-2-(pyridin4-yl)-6,7,8,9-tetrahydro-4H-pyrimido[1,2-a]pyrimidin-4-one] | 0.06 | 0.067 | 
5 | CC1CCn2c(nc(-c3ccncc3)c(F)c2=O)N1CC(=O)c1ccccc1 (racemic) [Table 3 Compound 18, 3-Fluoro-8-methyl-9-(2-oxo-2-phenyl-ethyl)-2-(pyridin-4-yl)-6,7,8,9-tetrahydro-pyrimido[1,2-a]pyrimidin-4-one] |  |  | 201 to 202
6 | CC1(C)CN(C[C@@H](O)c2ccccc2)c2nc(-c3ccncc3)c(F)c(=O)n2C1 [Table 1 Compound 12, 9-(2(S)-Hydroxy-2-phenyl-ethyl)-3-fluoro-7,7-dimethyl-2-(pyridin-4-yl)-6,7,8,9-tetrahydro-4H-pyrimido[1,2-a]pyrimidin-4-one] | 0.011 | 0.334 | 
7 | CC1CCn2c(nc(-c3ccncc3)cc2=O)N1C[C@@H](O)c1ccccc1 (mixture of isomers) [Table 3 Compound 7, 9-[2(S)-Hydroxy-2-phenyl-ethyl]-8-methyl-2-(pyridin-4-yl)-6,7,8,9-tetrahydro-pyrimido[1,2-a]pyrimidin-4-one] | 0.004 | 0.344 | 
8 | CO[C@H](CN1CCCn2c1nc(-c1ccncc1)c(F)c2=O)c1ccccc1 [Table 1 Compound 45, 9-(2(S)-Methoxy-2-phenyl-ethyl)-3-fluoro-2-(pyridin-4-yl)-6,7,8,9-tetrahydro-4H-pyrimido[1,2-a]pyrimidin-4-one] | 0.006 | > 1 | 
9 | O=c1c(Cl)c(-c2ccncc2)nc2n1CCCN2C[C@@H](O)c1ccccc1 [Table 1 Compound 42, 9-(2(S)-Hydroxy-2-phenyl-ethyl)-3-chloro-2-(pyridin-4-yl)-6,7,8,9-tetrahydro-4H-pyrimido[1,2-a]pyrimidin-4-one] | 0.028 | 0.154 | 
10 | Cc1ccc([C@H](O)CN2c3nc(-c4ccncc4)cc(=O)n3CCC2(C)C)cc1 [Table 3 Compound 32, 9-(2(S)-Hydroxy-2-p-tolyl-ethyl)-8,8-dimethyl-2-(pyridin-4-yl)-6,7,8,9-tetrahydro-pyrimido[1,2-a]pyrimidin-4-one] | 0.001 | > 1 | 
11 | O=c1c(F)c(-c2ccncc2)nc2n1CCCN2C[C@@H](O)c1ccccc1 [Table 1 Compound 44, 9-(2(S)-Hydroxy-2-phenyl-ethyl)-3-fluoro-2-(pyridin-4-yl)-6,7,8,9-tetrahydro-4H-pyrimido[1,2-a]pyrimidin-4-one] | 0.006 | > 1 | 
